PubChem BioAssay (NCI)
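A five-concentration, 48-hour dose response in 96-well plates underlies each endpoint, interpolated linearly between surrounding concentrations. The concentration for full growth arrest is given as TGI.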

Experiments:
Assay in all cases: NCI anticancer screen, dose series, 48 h
[1] = tested on: HCT-15 colon
[2] = tested on: U251 CNS
[3] = tested on: KM12 colon
[4] = tested on: HL-60(TB) leukemia
[5] = tested on: SF-268 CNS
[6] = tested on: UO-31 renal
[7] = tested on: NCI-H23 lung
[8] = tested on: UACC-257 melanoma
[9] = tested on: LOX IMVI melanoma
[10] = tested on: IGROV1 ovarian
[11] = tested on: HS 578T breast
[12] = tested on: SK-MEL-28 melanoma
[13] = tested on: HT29 colon
[14] = tested on: BT-549 breast
[15] = tested on: EKVX NSCLC
[16] = tested on: PC-3 prostate

Structure (SMILES)	TGI [1] [µM]	TGI [2] [µM]	TGI [3] [µM]	TGI [4] [µM]	TGI [5] [µM]	TGI [6] [µM]	TGI [7] [µM]	TGI [8] [µM]	TGI [9] [µM]	TGI [10] [µM]	TGI [11] [µM]	TGI [12] [µM]	TGI [13] [µM]	TGI [14] [µM]	TGI [15] [µM]	TGI [16] [µM]
CCOC(=O)c1c(N)n(-c2ccccc2)c(=O)n(-c2ccccc2)c1=O	> 100	> 100	> 100	> 100	> 100	> 100	> 100	> 100	> 100	> 100	> 100	> 100	> 100	> 100	–	–
CC(C)=CCC[C@@H](C)/C=C/C=C(\C)C(=O)CC[C@@H]1CC[N@+]2(C)CCCC[C@H]12	> 100	> 100	> 100	–	> 100	> 100	> 100	> 100	> 100	> 100	> 100	> 100	–	> 100	> 100	> 100
C#C[C@]1(O)CC[C@H]2[C@@H]3CCC4=C/C(=N/OCCN(C)C)CC[C@]4(C)[C@H]3CC[C@@]21C	> 100	> 100	> 100	–	> 100	> 100	> 100	> 100	> 100	> 100	> 100	> 100	> 100	> 100	> 100	> 100
NC1=CN(CCCO)C2=N/C(=C\c3ccccc3)C(=O)N12	> 100	> 100	> 100	> 100	> 100	> 100	> 100	> 100	> 100	> 100	> 100	> 100	> 100	> 100	> 100	> 100
CCc1n[nH]c(=O)n1/N=C/c1ccccc1O	> 100	> 100	> 100	–	> 100	> 100	> 100	> 100	> 100	> 100	99	> 100	–	> 100	> 100	> 100
O=c1cc(N=Nc2ccc(Br)cc2)[nH]c(=S)[nH]1	29.8	> 100	> 100	58.6	> 100	> 100	> 100	67.7	29.4	> 100	> 100	53.2	34.2	> 100	39.6	> 100
O=C1/C(=C\Oc2ccc(F)cc2)N2CCC1CC2	> 100	> 100	–	> 100	> 100	> 100	> 100	> 100	> 100	> 100	> 100	> 100	> 100	> 100	> 100	> 100
Oc1ccc(O)c(CNc2ccc(C(O)C(F)(F)F)cc2)c1 (configuration not stated)	30.7	> 100	–	16.4	66	21.9	56.9	34.6	32.2	30.1	> 100	77.3	> 100	28.2	27.8	> 100
COC(=O)C(NC(=O)C(CC(=O)OC(C)(C)C)NC(=O)OC(C)(C)C)C(O)c1ccccc1 (configuration not stated)	> 100	> 100	> 100	–	> 100	> 100	> 100	> 100	> 100	> 100	> 100	> 100	> 100	> 100	> 100	> 100
Cc1ccc(NC(Nc2ccc(C)cc2C)=C(C(Cl)=C(Cl)Cl)[N+](=O)[O-])c(C)c1	32.3	–	29.2	22	33.2	26.6	20	35.7	20.4	29.2	> 100	35.2	33.3	38.8	29.8	25
O=C1C[C@H](c2ccccc2)O[C@@H](c2ccccc2)C1	> 100	> 100	> 100	–	> 100	> 100	> 100	> 100	> 100	> 100	> 100	> 100	> 100	> 100	> 100	> 100
Cc1nc(N)c(N2CCN(C(=O)O)CC2)c(=O)[nH]1	> 100	> 100	> 100	> 100	> 100	> 100	> 100	> 100	> 100	–	> 100	> 100	> 100	> 100	> 100	> 100
O=c1oc2ccccc2nc1/C=C(\O)c1ccc(Cl)cc1	> 100	> 100	> 100	–	> 100	> 100	> 100	> 100	–	> 100	> 100	–	> 100	> 100	> 100	> 100
CCc1ccccc1N=NC(=O)NNc1ccccc1CC	38.1	29.6	–	56.9	35.4	39.8	39.8	36.1	33.7	26	–	32.2	40.8	34.3	–	37.5
CCOC(=O)c1nc2ccc(C(F)(F)F)cc2nc1NCc1ccc(OC)cc1	> 100	> 100	> 100	–	> 100	> 100	> 100	> 100	> 100	> 100	> 100	–	> 100	> 100	> 100	> 100
COC(=O)/C(C#N)=C(\Nc1ccccc1)N1CCOCC1	> 100	> 100	–	> 100	> 100	> 100	> 100	> 100	> 100	> 100	> 100	> 100	> 100	> 100	> 100	> 100

Structure (SMILES)	TGI [1] [µM]	TGI [2] [µM]	TGI [3] [µM]	TGI [4] [µM]	TGI [5] [µM]	TGI [6] [µM]	TGI [7] [µM]	TGI [8] [µM]	TGI [9] [µM]	TGI [10] [µM]	TGI [11] [µM]	TGI [12] [µM]	TGI [13] [µM]	TGI [14] [µM]	TGI [15] [µM]	TGI [16] [µM]
COc1ccc(N=N/C(=N/NC(=O)c2ccc(C)cc2)c2ccc(N(CCC#N)CCC#N)cc2OC)cc1	> 100	> 100	> 100	–	> 100	> 100	> 100	> 100	> 100	> 100	> 100	> 100	> 100	> 100	> 100	> 100
C=C=C(CC1CCCCC1=O)S(=O)(=O)c1ccccc1 (configuration not stated)	> 10	> 10	–	2.5	> 10	> 10	> 10	> 10	> 10	> 10	> 10	> 10	> 10	> 10	> 10	> 10
COC(=O)C(N)CCCC(N)C(=O)NC(C)C(=O)NC(CCC(=O)NCCNCCNc1c2ccccc2nc2cccc([N+](=O)[O-])c12)C(N)=O (configuration not stated)	48.6	> 41.1	67.2	–	10.7	59.4	9.91	70.5	43	> 100	38.8	31.1	47.7	38.5	32.9	29.5
OC(c1ccc(F)cc1)C(F)(F)c1nc2ccccc2o1 (configuration not stated)	> 100	> 100	> 100	> 100	> 100	> 100	> 100	> 100	> 100	> 100	–	> 100	> 100	> 100	> 100	> 100
CCCNC(=S)/N=C/c1c(O)cc(C)oc1=O	> 100	> 100	> 100	–	–	> 100	> 100	> 100	> 100	> 100	–	> 100	> 100	> 100	> 100	> 100
Nc1ccc2c(O)cc(=O)[nH]c2n1	> 100	> 100	> 100	> 100	> 100	> 100	> 100	> 100	–	> 100	> 100	> 100	> 100	> 100	> 100	> 100
O=C(NC1(c2cc3ccccc3s2)CCCCC1)C1CCC1	> 100	> 100	> 100	> 100	–	> 100	> 100	> 100	> 100	> 100	83.7	> 100	> 100	> 100	> 100	> 100
O=c1[nH]c(=O)n(COCc2ccccc2)c2ccsc12	> 100	> 100	> 100	–	> 100	–	–	> 100	> 100	> 100	> 100	> 100	> 100	> 100	> 100	> 100
N#Cc1cc(C#N)c(N)nc1N	> 100	> 100	> 100	> 100	–	> 100	> 100	> 100	> 100	> 100	> 100	–	> 100	> 100	> 100	> 100
N#Cc1nc(CCN2C(=O)c3ccccc3C2=O)oc1N	> 100	> 100	> 100	–	> 100	> 100	> 100	> 100	> 100	> 100	> 100	> 100	> 100	> 100	> 100	> 100
CC(=O)Nc1c(S(=O)(=O)c2ccccc2)c(C)c(C)n1CCN(C)C	> 100	> 100	> 100	> 100	> 100	> 100	> 100	> 100	–	> 100	> 100	> 100	> 100	> 100	> 100	> 100
CN(C)CCCN1C(=S)N(CCCN(C)C)c2c3ccccc3nc3c([N+](=O)[O-])ccc1c23	21.9	20.7	16.1	–	32.5	27.9	23.7	20.3	17.9	16.9	41	29.9	12	36.4	25.1	> 42.4
c1ccc([P+](CCSCCSCC[P+](c2ccccc2)(c2ccccc2)c2ccccc2)(c2ccccc2)c2ccccc2)cc1	> 100	> 100	> 100	> 100	> 100	> 100	> 100	> 100	–	> 100	> 100	> 100	> 100	> 100	> 100	–
C[C@@H](c1ccccc1)n1c(N)c(-c2ccccn2)c2ccc([N+](=O)[O-])cc2c1=O	> 100	> 100	> 100	> 100	> 100	> 100	> 100	> 100	> 100	–	> 100	> 100	> 100	> 100	–	> 100
CC(=O)C1=C(C)N2C(=NC3=C(CCc4ccccc43)C2c2ccc(F)cc2)S1 (configuration not stated)	–	> 100	> 100	92.4	> 100	> 100	> 100	> 100	> 100	> 100	> 100	> 100	> 100	> 100	> 100	> 100
